Consider nine molecules from US5767126A, “Alzheimer's disease treatment with tacrine metabolites” (priority 1991, dated 1998).

SMILES strings stand for the structures.

For the first test, the target named is T1, acetylcholinesterase (Homo sapiens, UniProt P22303). Kind of test: Acetylcholinesterase inhibition, photometric method of Ellman. The format is biochemical. The following applies: pI is a logarithmic measure of capacity to prevent the action of acetylcholinesterase, read-out: Cholinesterase inhibition pI (converted). A general note: In Ellman's method for cholinesterases, released thiocholine reacts with DTNB.
T1 sequence (P22303 32-614): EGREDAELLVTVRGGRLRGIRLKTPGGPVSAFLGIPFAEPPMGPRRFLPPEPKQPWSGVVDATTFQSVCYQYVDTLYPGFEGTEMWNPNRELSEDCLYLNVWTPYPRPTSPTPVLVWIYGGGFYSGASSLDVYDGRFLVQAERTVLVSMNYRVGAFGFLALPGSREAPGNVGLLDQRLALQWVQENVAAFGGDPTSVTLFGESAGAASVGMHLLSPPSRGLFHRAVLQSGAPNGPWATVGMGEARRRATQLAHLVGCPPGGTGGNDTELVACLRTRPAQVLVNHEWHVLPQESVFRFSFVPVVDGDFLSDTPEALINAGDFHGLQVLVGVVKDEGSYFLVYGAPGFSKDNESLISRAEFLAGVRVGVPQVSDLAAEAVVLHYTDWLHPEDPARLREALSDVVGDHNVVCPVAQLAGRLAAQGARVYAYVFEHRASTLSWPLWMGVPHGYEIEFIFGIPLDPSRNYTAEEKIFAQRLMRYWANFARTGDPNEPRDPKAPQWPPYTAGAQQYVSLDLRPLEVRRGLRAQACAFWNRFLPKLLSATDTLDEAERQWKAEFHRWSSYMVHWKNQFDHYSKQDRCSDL
Take `Nc1c2c(nc3ccccc13)C=CC(O)C2O` (stereo not drawn) [9-amino-1,2-dihydroacridin-1,2-diol]: the IC50 was 631 nM.
With `Nc1c2c(nc3ccccc13)C(O)C(O)C(O)C2` (stereo not drawn) [9-amino-1,2,3,4-tetrahydroacridin-2,3,4-triol], the IC50 was 126 nM.
Consider `Nc1c2ccccc2nc2c(O)cc(O)cc12` [9-amino-2,4-dihydroxyacridine], for which the IC50 was 158 nM.
On the same count and under the same terms, the value for `Nc1c2ccccc2nc2c(O)ccc(O)c12` [9-amino-1,4-dihydroxyacridine] was 316 nM; that for `Nc1c2c(nc3ccccc13)C(O)C(O)CC2` (stereo not drawn) [9-amino-1,2,3,4-tetrahydroacridin-3,4-diol] was 200 nM; that for `Nc1c2c(nc3ccccc13)C(=O)CC(O)C2O` (stereo not drawn) [9-amino-1,2-dihydroacridin-1,2-diol 4(3H)-one] was 501 nM.
Still for that read-out and setting: then `Nc1c2c(nc3ccccc13)CCC(O)C2O` (stereo not drawn) [9-amino-1,2,3,4-tetrahydroacridin-1,2-diol], with 1260 nM; and `Nc1c2c(nc3ccccc13)C(O)C(O)C(O)C2O` (stereo not drawn) [9-amino-1,2,3,4-tetrahydroacridin 1,2,3,4-tetraol], with 158 nM.

For another test, the target named is T1, acetylcholinesterase.
Test: not given
The settings on record: figure obtained from the study by P. N. Kaul (J. Pharm. Pharmacol. 1962); cited from earlier work.
Turning to `Nc1ccnc2ccccc12` [4-aminoquinoline], the “Cholinesterase inhibition pI” value is on record as 4.3.
